ChEMBL document CHEMBL6103537 (J Med Chem, 2025)

Columns and labels:
[1] = biological target: T1, Protein cereblon/Signal transducer and activator of transcription 6 (Homo sapiens, UniProt P42226+Q96SW2); test: PROTAC activity at STAT6/CRBN in human MV4-11 cells assessed as reduction in STAT6 level at 5 uM incubated for 12 hrs by Western blot analysis relative to control; type: cell-based
Target sequence in this assay (Q96SW2 whole entry partner, one chain of several): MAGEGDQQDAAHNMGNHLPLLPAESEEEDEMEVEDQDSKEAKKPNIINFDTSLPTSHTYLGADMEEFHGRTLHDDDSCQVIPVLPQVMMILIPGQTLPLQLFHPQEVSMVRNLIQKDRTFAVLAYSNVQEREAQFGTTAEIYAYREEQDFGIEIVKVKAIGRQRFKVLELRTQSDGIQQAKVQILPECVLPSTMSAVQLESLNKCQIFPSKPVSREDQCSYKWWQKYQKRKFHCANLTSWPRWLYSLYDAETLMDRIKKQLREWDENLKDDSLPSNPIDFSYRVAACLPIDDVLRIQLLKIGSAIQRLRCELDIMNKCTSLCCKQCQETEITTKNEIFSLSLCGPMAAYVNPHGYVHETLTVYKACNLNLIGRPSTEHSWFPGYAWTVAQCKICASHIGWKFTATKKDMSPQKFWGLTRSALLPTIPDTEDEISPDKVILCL

[2] = biological target: T1, Protein cereblon/Signal transducer and activator of transcription 6; test: PROTAC activity at STAT6/CRBN in human MV4-11 cells assessed as reduction in STAT6 level incubated for 12 hrs by Western blot analysis; type: cell-based
Target sequence in this assay (Q96SW2 whole entry, one chain of several): as the sequence (Q96SW2 whole entry partner, one chain of several) above

[3] = biological target: T2, Signal transducer and activator of transcription 6 (Homo sapiens, UniProt P42226); test: Binding affinity to N-terminal his6-tgged STAT6 (unknown origin) (113 to 658 residues) assessed as inhibition constant incubated for 1 hr by fluorescence polarization assay
T2 sequence (P42226 whole entry): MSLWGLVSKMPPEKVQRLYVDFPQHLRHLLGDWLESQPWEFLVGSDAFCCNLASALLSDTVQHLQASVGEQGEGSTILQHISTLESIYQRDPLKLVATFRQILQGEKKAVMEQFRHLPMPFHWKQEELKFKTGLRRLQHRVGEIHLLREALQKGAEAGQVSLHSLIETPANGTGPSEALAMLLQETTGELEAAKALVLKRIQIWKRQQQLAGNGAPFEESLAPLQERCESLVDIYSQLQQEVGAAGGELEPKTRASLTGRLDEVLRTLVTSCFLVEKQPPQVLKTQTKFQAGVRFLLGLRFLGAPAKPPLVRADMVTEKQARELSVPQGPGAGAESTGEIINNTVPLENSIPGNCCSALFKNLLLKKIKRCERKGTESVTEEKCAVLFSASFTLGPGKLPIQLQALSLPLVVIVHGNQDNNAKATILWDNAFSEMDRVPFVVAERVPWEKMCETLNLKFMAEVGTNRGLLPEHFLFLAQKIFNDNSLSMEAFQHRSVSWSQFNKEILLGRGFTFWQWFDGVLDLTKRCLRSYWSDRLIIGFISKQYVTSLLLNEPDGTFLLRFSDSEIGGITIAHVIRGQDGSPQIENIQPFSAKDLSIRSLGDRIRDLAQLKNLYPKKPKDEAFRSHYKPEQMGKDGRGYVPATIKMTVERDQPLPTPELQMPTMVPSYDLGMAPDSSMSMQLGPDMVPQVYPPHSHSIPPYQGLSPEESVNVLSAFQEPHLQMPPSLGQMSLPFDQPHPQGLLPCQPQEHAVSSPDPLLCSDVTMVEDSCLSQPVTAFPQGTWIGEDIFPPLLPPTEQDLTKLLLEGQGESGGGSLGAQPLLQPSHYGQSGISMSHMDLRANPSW

[4] = biological target: T3, Signal transducer and activator of transcription 5B (Homo sapiens, UniProt P51692); test: Binding affinity to STAT5B (unknown origin) assessed as inhibition constant incubated for 1 hr by fluorescence polarization assay
T3 sequence (P51692 whole entry): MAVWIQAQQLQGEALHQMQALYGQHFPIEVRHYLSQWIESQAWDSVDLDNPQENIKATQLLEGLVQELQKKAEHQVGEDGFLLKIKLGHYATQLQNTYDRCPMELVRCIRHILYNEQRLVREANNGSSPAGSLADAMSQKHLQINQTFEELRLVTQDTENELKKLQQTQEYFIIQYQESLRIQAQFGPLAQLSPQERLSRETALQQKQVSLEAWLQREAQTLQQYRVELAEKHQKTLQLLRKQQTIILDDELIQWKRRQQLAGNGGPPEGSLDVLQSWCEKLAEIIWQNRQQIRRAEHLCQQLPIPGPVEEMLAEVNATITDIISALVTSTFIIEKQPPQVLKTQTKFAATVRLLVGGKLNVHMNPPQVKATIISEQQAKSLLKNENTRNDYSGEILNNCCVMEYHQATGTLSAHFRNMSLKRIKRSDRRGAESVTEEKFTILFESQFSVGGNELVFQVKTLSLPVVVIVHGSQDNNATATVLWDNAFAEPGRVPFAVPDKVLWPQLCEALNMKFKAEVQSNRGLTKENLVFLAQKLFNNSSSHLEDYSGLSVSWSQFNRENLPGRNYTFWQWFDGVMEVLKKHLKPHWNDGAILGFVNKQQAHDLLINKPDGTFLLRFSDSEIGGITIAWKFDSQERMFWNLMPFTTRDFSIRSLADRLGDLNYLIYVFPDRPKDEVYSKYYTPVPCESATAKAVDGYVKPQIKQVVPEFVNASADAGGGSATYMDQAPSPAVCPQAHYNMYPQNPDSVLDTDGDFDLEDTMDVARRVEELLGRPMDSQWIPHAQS

Structure (SMILES) | Ki [3] [nM] | further results
CC(C)(C)[C@H](NC(=O)c1cc2cc(C(F)(F)P(=O)(O)O)ccc2s1)C(=O)N1C[C@@H](OCCCCC#Cc2cccc3c2CN(C2CCC(=O)NC2=O)C3=O)C[C@H]1C(=O)N1CCO[C@H](c2ccccc2)C1 (stereo not given in full) | – | Emax [1]: > 95%; DC50 [2]: 50 nM
O=C(N[C@@H](Cc1ccccc1)C(=O)N1CCC[C@H]1C(=O)N1CCO[C@H](c2ccccc2)C1)c1cc2cc(C(F)(F)P(=O)(O)O)ccc2s1 | 340 | –
O=C(N[C@H](C(=O)N1CCC[C@H]1C(=O)N1CCO[C@H](c2ccccc2)C1)C1CCCCC1)c1cc2cc(C(F)(F)P(=O)(O)O)ccc2s1 | 90 | –
CC(C)(C)[C@H](NC(=O)c1cc2cc(C(F)(F)P(=O)(O)O)ccc2s1)C(=O)N1CCCCC[C@H]1C(=O)N1CCO[C@H](c2ccccc2)C1 | 120 | –
CO[C@H]1C[C@@H](C(=O)N2CCO[C@H](c3ccccc3)C2)N(C(=O)[C@@H](NC(=O)c2cc3cc(C(F)(F)P(=O)(O)O)ccc3s2)C(C)(C)C)C1 | 6 | –
O=C(N[C@@H](Cc1ccc(Br)cc1)C(=O)N1CCC[C@H]1C(=O)N1CCO[C@H](c2ccccc2)C1)c1cc2cc(C(F)(F)P(=O)(O)O)ccc2s1 | 170 | –
CN1CCC(C[C@H](NC(=O)c2cc3cc(C(F)(F)P(=O)(O)O)ccc3s2)C(=O)N2CCC[C@H]2C(=O)N2CCO[C@H](c3ccccc3)C2)CC1 | 250 | –
CC(C)(C)[C@H](NC(=O)c1cc2cc(C(F)(F)P(=O)(O)O)ccc2s1)C(=O)N1Cc2ccccc2[C@H]1C(=O)N1CCC[C@H](c2ccccc2)C1 | 42 | –
CC(C)(O)[C@H](NC(=O)c1cc2cc(C(F)(F)P(=O)(O)O)ccc2s1)C(=O)N1CCC[C@H]1C(=O)N1CCO[C@H](c2ccccc2)C1 | 120 | –
CC(C)(C)[C@H](NC(=O)c1cc2cc(C(F)(F)P(=O)(O)O)ccc2s1)C(=O)N1CCCC[C@H]1C(=O)N1CCC[C@H](c2ccccc2)C1 | 160 | –
CC(C)(C)[C@H](NC(=O)c1cc2cc(C(F)(F)P(=O)(O)O)ccc2s1)C(=O)N1C[C@@H](OCCCCCCC#Cc2cccc3c2CN(C2CCC(=O)NC2=O)C3=O)C[C@H]1C(=O)N1CCO[C@H](c2ccccc2)C1 (stereo not given in full) | – | Emax [1]: > 95%; DC50 [2]: 20 nM
CC(C)(C)[C@H](NC(=O)c1cc2cc(C(F)(F)P(=O)(O)O)ccc2s1)C(=O)N1C[C@@H](OCCCCCCCC#Cc2cccc3c2CN(C2CCC(=O)NC2=O)C3=O)C[C@H]1C(=O)N1CCO[C@H](c2ccccc2)C1 (stereo not given in full) | – | Emax [1]: > 95%; DC50 [2]: 60 nM
O=C(N[C@@H](Cc1ccc2ccccc2c1)C(=O)N1CCC[C@H]1C(=O)N1CCO[C@H](c2ccccc2)C1)c1cc2cc(C(F)(F)P(=O)(O)O)ccc2s1 | 250 | –
CC(=O)N[C@H]1C[C@@H](C(=O)N2CCO[C@H](c3ccccc3)C2)N(C(=O)[C@@H](NC(=O)c2cc3cc(C(F)(F)P(=O)(O)O)ccc3s2)C(C)(C)C)C1 | – | Ki [4]: 590 nM
CC(C)(C)[C@H](NC(=O)c1cc2cc(C(F)(F)P(=O)(O)O)ccc2s1)C(=O)N1C[C@@H](NC(=O)CCCCCCC#Cc2cccc3c2CN(C2CCC(=O)NC2=O)C3=O)C[C@H]1C(=O)N1CCO[C@H](c2ccccc2)C1 (stereo not given in full) | – | Emax [1]: > 95%; DC50 [2]: 250 nM
CC(C)(C)[C@H](NC(=O)c1cc2cc(C(F)(F)P(=O)(O)O)ccc2s1)C(=O)N1C[C@@H](NC(=O)CCCCC#Cc2cccc3c2CN(C2CCC(=O)NC2=O)C3=O)C[C@H]1C(=O)N1CCO[C@H](c2ccccc2)C1 (stereo not given in full) | – | Emax [1]: > 95%; DC50 [2]: 120 nM
O=C(N[C@@H](Cc1ccncc1)C(=O)N1CCC[C@H]1C(=O)N1CCO[C@H](c2ccccc2)C1)c1cc2cc(C(F)(F)P(=O)(O)O)ccc2s1 | 450 | –
CC(C)(C)[C@H](NC(=O)c1cc2cc(C(F)(F)P(=O)(O)O)ccc2s1)C(=O)N1CCCCC[C@H]1C(=O)N1CCC[C@H](c2ccccc2)C1 | 200 | –

Structure (SMILES) | Ki [3] [nM] | further results
CC[C@H](NC(=O)c1cc2cc(C(F)(F)P(=O)(O)O)ccc2s1)C(=O)N1CCC[C@H]1C(=O)N1CCO[C@H](c2ccccc2)C1 | 160 | –
CC(C)(C)[C@H](NC(=O)c1cc2cc(C(F)(F)P(=O)(O)O)ccc2s1)C(=O)N1C[C@@H](NC(=O)CCCCCC#Cc2cccc3c2CN(C2CCC(=O)NC2=O)C3=O)C[C@H]1C(=O)N1CCO[C@H](c2ccccc2)C1 (stereo not given in full) | – | Emax [1]: > 95%; DC50 [2]: 60 nM
O=C(N[C@H](C(=O)N1CCC[C@H]1C(=O)N1CCO[C@H](c2ccccc2)C1)C1CC1)c1cc2cc(C(F)(F)P(=O)(O)O)ccc2s1 | 120 | –
CC(C)(C)[C@H](NC(=O)c1cc2cc(C(F)(F)P(=O)(O)O)ccc2s1)C(=O)N1CCC[C@H]1C(=O)N1Cc2ccccc2C1 | – | Ki [4]: > 5000 nM
CC(C)(C)[C@H](NC(=O)c1cc2cc(C(F)(F)P(=O)(O)O)ccc2s1)C(=O)N1C[C@@H](NC(=O)CCCC#Cc2cccc3c2CN(C2CCC(=O)NC2=O)C3=O)C[C@H]1C(=O)N1CCO[C@H](c2ccccc2)C1 (stereo not given in full) | – | Emax [1]: > 95%; DC50 [2]: 260 nM
C/C(=C\C(=O)N[C@H](C(=O)N1CCC[C@H]1C(=O)N1CCc2ccccc2C1)C(C)(C)C)c1ccc(C(F)(F)P(=O)(O)O)cc1 | 3500 | –
CC(C)(C)[C@H](NC(=O)c1cc2cc(C(F)(F)P(=O)(O)O)ccc2s1)C(=O)N1Cc2ccccc2[C@H]1C(=O)N1CCO[C@H](c2ccccc2)C1 | 33 | –
CC(C)(C)[C@H](NC(=O)c1cc2cc(C(F)(F)P(=O)(O)O)ccc2s1)C(=O)N1C[C@H](OCCCCCC#Cc2cccc3c2CN(C2CCC(=O)NC2=O)C3=O)C[C@H]1C(=O)N1CCO[C@H](c2ccccc2)C1 (stereo not given in full) | – | Emax [1]: > 95%; DC50 [2]: 130 nM
CC(C)(C)[C@H](NC(=O)c1cc2cc(C(F)(F)P(=O)(O)O)ccc2s1)C(=O)N1CCCC[C@H]1C(=O)N1CCO[C@H](c2ccccc2)C1 | 110 | –
CC(C)(C)c1ccc(C[C@H](NC(=O)c2cc3cc(C(F)(F)P(=O)(O)O)ccc3s2)C(=O)N2CCC[C@H]2C(=O)N2CCO[C@H](c3ccccc3)C2)cc1 | 160 | –
O=C(N[C@@H](CC1CCNCC1)C(=O)N1CCC[C@H]1C(=O)N1CCO[C@H](c2ccccc2)C1)c1cc2cc(C(F)(F)P(=O)(O)O)ccc2s1 | 180 | –
CC(C)(C)[C@H](NC(=O)c1cc2cc(C(F)(F)P(=O)(O)O)ccc2s1)C(=O)N1C[C@@H](OCCCCCCNc2cccc3c2CN(C2CCC(=O)NC2=O)C3=O)C[C@H]1C(=O)N1CCO[C@H](c2ccccc2)C1 (stereo not given in full) | – | Emax [1]: > 95%; DC50 [2]: 60 nM
CC(C)(C)[C@H](NC(=O)c1cc2cc(C(F)(F)P(=O)(O)O)ccc2s1)C(=O)N1Cc2ccccc2C[C@H]1C(=O)N1CCC[C@H](c2ccccc2)C1 | 190 | –
COc1ccc(C[C@H](NC(=O)c2cc3cc(C(F)(F)P(=O)(O)O)ccc3s2)C(=O)N2CCC[C@H]2C(=O)N2CCO[C@H](c3ccccc3)C2)cc1 | 210 | –
CC(C)(C)[C@H](NC(=O)c1cc2cc(C(F)(F)P(=O)(O)O)ccc2s1)C(=O)N1C[C@@H](NC(=O)CCCCCC#Cc2ccc3c(c2)CN(C2CCC(=O)NC2=O)C3=O)C[C@H]1C(=O)N1CCO[C@H](c2ccccc2)C1 (stereo not given in full) | – | Emax [1]: > 90%; DC50 [2]: 200 nM
O=C(N[C@H](C(=O)N1CCC[C@H]1C(=O)N1CCO[C@H](c2ccccc2)C1)C1CCNCC1)c1cc2cc(C(F)(F)P(=O)(O)O)ccc2s1 | 260 | –
CC(C)(C)[C@H](NC(=O)c1cc2cc(C(F)(F)P(=O)(O)O)ccc2s1)C(=O)N1Cc2ccccc2C[C@H]1C(=O)N1CCO[C@H](c2ccccc2)C1 | 83 | –
